For 36 molecules, inhibition results are on record in patent US7420056B2, “Substituted bicyclic imidazo-3-ylamine compounds” (Gruenenthal GmbH, priority 2004, dated 2008).

This experiment concerns the target mGluR5 receptor (Sus scrofa, UniProt I3LUI7). Kind of experiment: Affinity for the mGluR5 receptor: inhibition of 3[H]-MPEP binding in pig brain homogenate. Particulars: 10 μM compound, 5 nM 3[H]-MPEP, read-out: mGluR5 receptor inhibition of ^3[H]-MPEP binding [10 μM] in % at a concentration of the example compounds of 10 μM. An outline of the steps:
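Test compounds were screened at 10 μM for displacement of 5 nM [3H]-MPEP from pig brain homogenate (450 μg protein, pH 8.0 Hepes buffer) over 60 min at room temperature. After filtration, scintillation counting gave the read-out. 10 μM unlabelled MPEP set nonspecific binding.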

mGluR5 receptor, sequence (I3LUI7 19-1212): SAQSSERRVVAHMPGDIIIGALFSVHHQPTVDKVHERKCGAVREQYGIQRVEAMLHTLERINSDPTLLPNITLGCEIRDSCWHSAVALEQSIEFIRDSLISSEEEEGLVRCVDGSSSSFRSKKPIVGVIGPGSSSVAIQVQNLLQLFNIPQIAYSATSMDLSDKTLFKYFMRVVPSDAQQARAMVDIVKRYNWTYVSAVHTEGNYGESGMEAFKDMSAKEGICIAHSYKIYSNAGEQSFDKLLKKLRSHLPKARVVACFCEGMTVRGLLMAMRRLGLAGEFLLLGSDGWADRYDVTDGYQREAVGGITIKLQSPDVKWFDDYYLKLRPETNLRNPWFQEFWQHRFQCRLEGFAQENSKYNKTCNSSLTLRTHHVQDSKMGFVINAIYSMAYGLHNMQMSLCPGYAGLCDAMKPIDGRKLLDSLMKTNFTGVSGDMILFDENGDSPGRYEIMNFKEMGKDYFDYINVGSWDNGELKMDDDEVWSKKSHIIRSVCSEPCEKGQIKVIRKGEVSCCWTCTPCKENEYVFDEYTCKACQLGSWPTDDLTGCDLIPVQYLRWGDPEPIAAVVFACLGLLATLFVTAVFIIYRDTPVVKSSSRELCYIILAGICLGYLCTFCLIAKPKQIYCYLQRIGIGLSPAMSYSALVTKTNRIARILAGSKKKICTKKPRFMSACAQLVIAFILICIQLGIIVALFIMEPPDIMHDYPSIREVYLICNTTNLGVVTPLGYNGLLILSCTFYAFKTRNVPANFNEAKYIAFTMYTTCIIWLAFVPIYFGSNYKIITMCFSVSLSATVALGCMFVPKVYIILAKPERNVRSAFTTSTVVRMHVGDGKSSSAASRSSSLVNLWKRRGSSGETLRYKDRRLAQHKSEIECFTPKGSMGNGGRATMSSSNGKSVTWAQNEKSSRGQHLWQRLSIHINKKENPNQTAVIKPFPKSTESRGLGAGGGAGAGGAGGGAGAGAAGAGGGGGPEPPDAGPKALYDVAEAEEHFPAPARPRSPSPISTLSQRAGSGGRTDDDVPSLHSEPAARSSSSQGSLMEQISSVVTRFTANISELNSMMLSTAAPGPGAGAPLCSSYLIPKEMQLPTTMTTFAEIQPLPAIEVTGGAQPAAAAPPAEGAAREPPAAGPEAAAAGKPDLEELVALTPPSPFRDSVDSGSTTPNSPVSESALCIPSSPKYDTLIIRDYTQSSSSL

In the case of `C(#Cc1ccccn1)c1cccc(-c2nc3ccccn3c2NC2CCCC2)c1` [Example 260, N-cyclopentyl-2-(3-(pyridin-2-ylethynyl)phenyl)imidazo[1,2-a]pyridin-3-amine], the inhibition at 10 µM stood at 64%.

As for `CC(C)(C)Nc1c(-c2cccc(C#Cc3ccccn3)c2)nc2ccccn12` [Example 261, N-tert-butyl-2-(3-(pyridin-2-ylethynyl)phenyl)imidazo[1,2-a]pyridin-3-amine], the inhibition at 10 µM amounted to 79%.

For `CC(C)(C)CC(C)(C)Nc1c(-c2cccc(C#Cc3ccccn3)c2)nc2ccccn12` [Example 262, 2-(3-(pyridin-2-ylethynyl)phenyl)-N-(2,4,4-trimethylpentan-2-yl)imidazo[1,2-a]pyridin-3-amine], the inhibition at 10 µM amounted to 72%.

On to `Fc1ccc(Nc2c(-c3cccc(C#Cc4ccccn4)c3)nc3ccccn23)cc1` [Example 263, N-(4-fluorophenyl)-2-(3-(pyridin-2-ylethynyl)phenyl)imidazo[1,2-a]pyridin-3-amine], for which the inhibition at 10 µM came to 85%.

Turning to `CC(C)(C)Nc1c(-c2ccc(C#Cc3ccccn3)cc2)nc2ccccn12` [Example 264, N-tert-butyl-2-(4-(pyridin-2-ylethynyl)phenyl)imidazo[1,2-a]pyridin-3-amine], the inhibition at 10 µM is 83%.

Take `Cc1nc(C#Cc2ccccc2)ccc1-c1nc2ccccn2c1NC1CCCC1` [Example 265, N-cyclopentyl-2-(2-methyl-6-(phenylethynyl)pyridin-3-yl)imidazo[1,2-a]pyridin-3-amine]: the inhibition at 10 µM worked out at 68%.

For `Cc1nc(C#Cc2ccccc2)ccc1-c1nc2ccccn2c1Nc1ccc(F)cc1` [Example 266, N-(4-fluorophenyl)-2-(2-methyl-6-(phenylethynyl)pyridin-3-yl)imidazo[1,2-a]pyridin-3-amine], the inhibition at 10 µM amounted to 63%.

Consider `Cc1ccc2nc(-c3ccc(C#Cc4ccccn4)s3)c(NC3CCCC3)n2c1` [Example 267, N-cyclopentyl-6-methyl-2-(5-(pyridin-2-ylethynyl)thiophen-2-yl)imidazo[1,2-a]pyridin-3-amine], for which the inhibition at 10 µM is 85%.

Regarding `Cc1ccc2nc(-c3ccc(C#Cc4ccccn4)s3)c(NC(C)(C)C)n2c1` [Example 268, N-tert-butyl-6-methyl-2-(5-(pyridin-2-ylethynyl)thiophen-2-yl)imidazo[1,2-a]pyridin-3-amine], the inhibition at 10 µM stood at 75%.

Consider `Cc1ccc2nc(-c3ccc(C#Cc4ccccn4)s3)c(NC3CCCCC3)n2c1` [Example 269, N-cyclohexyl-6-methyl-2-(5-(pyridin-2-ylethynyl)thiophen-2-yl)imidazo[1,2-a]pyridin-3-amine], for which the inhibition at 10 µM stood at 94%.

For `Cc1ccc2nc(-c3ccc(C#Cc4ccccn4)s3)c(NC(C)(C)CC(C)(C)C)n2c1` [Example 270, 6-methyl-2-(5-(pyridin-2-ylethynyl)thiophen-2-yl)-N-(2,4,4-trimethylpentan-2-yl)imidazo[1,2-a]pyridin-3-amine], the inhibition at 10 µM was determined as 93%.

For the molecule `Cc1ccc2nc(-c3ccc(C#Cc4ccccc4)nc3C)c(NC(C)(C)CC(C)(C)C)n2c1` [Example 271, 6-methyl-2-(2-methyl-6-(phenylethynyl)pyridin-3-yl)-N-(2,4,4-trimethylpentan-2-yl)imidazo[1,2-a]pyridin-3-amine], the inhibition at 10 µM was 31%.

For the molecule `Cc1ccc2nc(-c3ccc(C#Cc4ccccn4)o3)c(NC3CCCC3)n2c1` [Example 272, N-cyclopentyl-6-methyl-2-(5-(pyridin-2-ylethynyl)furan-2-yl)imidazo[1,2-a]pyridin-3-amine], the inhibition at 10 µM was found to be 72%.

As to `Cc1ccc2nc(-c3cccc(C#Cc4cccc(C)n4)c3)c(NC3CCCCC3)n2c1` [Example 273, N-cyclohexyl-6-methyl-2-(3-((6-methylpyridin-2-yl)ethynyl)phenyl)imidazo[1,2-a]pyridin-3-amine], the inhibition at 10 µM turned out to be 84%.

Regarding `Cc1ccn2c(NC3CCCCC3)c(-c3ccc(C#Cc4ccccn4)s3)nc2c1` [Example 274, N-cyclohexyl-7-methyl-2-(5-(pyridin-2-ylethynyl)thiophen-2-yl)imidazo[1,2-a]pyridin-3-amine], the inhibition at 10 µM was 85%.

Consider `Cc1ccn2c(NC(C)(C)CC(C)(C)C)c(-c3ccc(C#Cc4ccccn4)s3)nc2c1` [Example 275, 7-methyl-2-(5-(pyridin-2-ylethynyl)thiophen-2-yl)-N-(2,4,4-trimethylpentan-2-yl)imidazo[1,2-a]pyridin-3-amine], for which the inhibition at 10 µM is 85%.

Consider `Cc1ccn2c(NC(C)(C)C)c(-c3cccc(C#Cc4ccccn4)c3)nc2c1` [Example 276, N-tert-butyl-7-methyl-2-(3-(pyridin-2-ylethynyl)phenyl)imidazo[1,2-a]pyridin-3-amine], for which the inhibition at 10 µM came to 93%.

As for `Cc1ccn2c(Nc3ccc(F)cc3)c(-c3cccc(C#Cc4ccccn4)c3)nc2c1` [Example 277, N-(4-fluorophenyl)-7-methyl-2-(3-(pyridin-2-ylethynyl)phenyl)imidazo[1,2-a]pyridin-3-amine], the inhibition at 10 µM amounted to 95%.

In the case of `Cc1ccn2c(NC(C)(C)C)c(-c3ccc(C#Cc4ccccn4)cc3)nc2c1` [Example 278, N-tert-butyl-7-methyl-2-(4-(pyridin-2-ylethynyl)phenyl)imidazo[1,2-a]pyridin-3-amine], the inhibition at 10 µM is 93%.

As for `Cc1ccn2c(Nc3ccc(F)cc3)c(-c3ccc(C#Cc4ccccn4)o3)nc2c1` [Example 279, N-(4-fluorophenyl)-7-methyl-2-(5-(pyridin-2-ylethynyl)furan-2-yl)imidazo[1,2-a]pyridin-3-amine], the inhibition at 10 µM came to 67%.

For `Cc1cccn2c(NC3CCCCC3)c(-c3ccc(C#Cc4ccccc4)nc3)nc12` [Example 280, N-cyclohexyl-8-methyl-2-(6-(phenylethynyl)pyridin-3-yl)imidazo[1,2-a]pyridin-3-amine], the inhibition at 10 µM worked out at 31%.

Regarding `C(#Cc1ccc(-c2nc3ccccn3c2NC2CCCC2)cn1)c1ccccc1` [Example 281, N-cyclopentyl-2-(6-(phenylethynyl)pyridin-3-yl)imidazo[1,2-a]pyridin-3-amine], the inhibition at 10 µM is 83%.

In the case of `CC(C)(C)Nc1c(-c2ccc(C#Cc3ccccc3)nc2)nc2ccccn12` [Example 282, N-tert-butyl-2-(6-(phenylethynyl)pyridin-3-yl)imidazo[1,2-a]pyridin-3-amine], the inhibition at 10 µM came to 72%.

With `C(#Cc1ccc(-c2nc3ccccn3c2NC2CCCCC2)cn1)c1ccccc1` [Example 283, N-cyclohexyl-2-(6-(phenylethynyl)pyridin-3-yl)imidazo[1,2-a]pyridin-3-amine], the inhibition at 10 µM was 82%.

On to `CC(C)(C)CC(C)(C)Nc1c(-c2ccc(C#Cc3ccccc3)nc2)nc2ccccn12` [Example 284, 2-(6-(phenylethynyl)pyridin-3-yl)-N-(2,4,4-trimethylpentan-2-yl)imidazo[1,2-a]pyridin-3-amine], for which the inhibition at 10 µM amounted to 68%.

On to `CC(C)(C)Nc1c(-c2ccc(C#Cc3ccccn3)o2)nc2ccccn12` [Example 285, N-tert-butyl-2-(5-(pyridin-2-ylethynyl)furan-2-yl)imidazo[1,2-a]pyridin-3-amine], for which the inhibition at 10 µM was 88%.

On to `C(#Cc1ccc(-c2nc3ccccn3c2NC2CCCCC2)o1)c1ccccn1` [Example 286, N-cyclohexyl-2-(5-(pyridin-2-ylethynyl)furan-2-yl)imidazo[1,2-a]pyridin-3-amine], for which the inhibition at 10 µM was 72%.

Take `Fc1ccc(Nc2c(-c3ccc(C#Cc4ccccn4)o3)nc3ccccn23)cc1` [Example 287, N-(4-fluorophenyl)-2-(5-(pyridin-2-ylethynyl)furan-2-yl)imidazo[1,2-a]pyridin-3-amine]: the inhibition at 10 µM was 30%.

Take `Cc1cccc(C#Cc2cccc(-c3nc4ccccn4c3NC3CCCCC3)c2)n1` [Example 288, N-cyclohexyl-2-(3-((6-methylpyridin-2-yl)ethynyl)phenyl)imidazo[1,2-a]pyridin-3-amine]: the inhibition at 10 µM is 89%.

`Cc1cccc(C#Cc2cccc(-c3nc4ccccn4c3NC(C)(C)CC(C)(C)C)c2)n1` [Example 289, 2-(3-((6-methylpyridin-2-yl)ethynyl)phenyl)-N-(2,4,4-trimethylpentan-2-yl)imidazo[1,2-a]pyridin-3-amine]: the inhibition at 10 µM came out at 51%.

Take `Cc1cccc(C#Cc2cccc(-c3nc4cccc(C)n4c3NC(C)(C)C)c2)n1` [Example 290, N-tert-butyl-5-methyl-2-(3-((6-methylpyridin-2-yl)ethynyl)phenyl)imidazo[1,2-a]pyridin-3-amine]: the inhibition at 10 µM is 88%.

Take `Cc1cccc(C#Cc2cccc(-c3nc4cccc(C)n4c3NC(C)(C)CC(C)(C)C)c2)n1` [Example 291, 5-methyl-2-(3-((6-methylpyridin-2-yl)ethynyl)phenyl)-N-(2,4,4-trimethylpentan-2-yl)imidazo[1,2-a]pyridin-3-amine]: the inhibition at 10 µM came to 92%.

Regarding `Cc1cc(C)n2c(NC3CCCCC3)c(-c3cccc(C#Cc4ccccn4)c3)nc2n1` [Example 292, N-cyclohexyl-5,7-dimethyl-2-(3-(pyridin-2-ylethynyl)phenyl)imidazo[1,2-a]pyrimidin-3-amine], the inhibition at 10 µM came out at 88%.

As for `Cc1cc(C)n2c(NC3CCCCC3)c(-c3ccc(C#Cc4ccccc4)nc3C)nc2n1` [Example 293, N-cyclohexyl-5,7-dimethyl-2-(2-methyl-6-(phenylethynyl)pyridin-3-yl)imidazo[1,2-a]pyrimidin-3-amine], the inhibition at 10 µM was 70%.

Consider `Cc1cc(C)n2c(NC3CCCC3)c(-c3ccc(C#Cc4ccccn4)o3)nc2n1` [Example 294, N-cyclopentyl-5,7-dimethyl-2-(5-(pyridin-2-ylethynyl)furan-2-yl)imidazo[1,2-a]pyrimidin-3-amine], for which the inhibition at 10 µM worked out at 79%.

Regarding `Cc1cc(C)n2c(NC(C)(C)C)c(-c3ccc(C#Cc4ccccn4)o3)nc2n1` [Example 295, N-tert-butyl-5,7-dimethyl-2-(5-(pyridin-2-ylethynyl)furan-2-yl)imidazo[1,2-a]pyrimidin-3-amine], the inhibition at 10 µM amounted to 84%.
